Experimental data as given in US20060241143A1, “Combination of paroxetine and 2-methoxy-5-(5-trifluoromethyl-tetrazol-1-yl-benzyl)-(2s-phenyl-piperidin-3s-yl)-amine for treatment of depression and/or anxiety” (priority 2003, published 2006).

Tested on: mongolian gerbils
Test: gerbil social interaction model (time spent in active social interactions)
Type: in vivo
Conditions: 0.03 mg/kg i.p. (as free base), one hour after administration
Description: Paroxetine hydrochloride hemihydrate (0.3 mg/kg p.o of the paroxetine measured as the free base), 2-methoxy-5-(5-trifluoromethyl-tetrazol-1-yl-benzyl)]-(2S-phenyl-piperidin-3S-yl)-amine dihydrochloride (hereinafter compound A) (0.03 mg/kg i.p of the compound A measured as the free base) and a combination of paroxetine (0.3 mg/kg p.o. of the paroxetine measured as the free base) and compound A (0.03 mg/kg i.p. of the compound A measured as the free base) were administered independently in mongolian gerbils to assess the effect on time spent in active social interactions.
The results obtained one hour after administration, expressed as a percentage variation of the time spent in active social interactions by each animal in respect to the value obtained by treatment of control animals, are summarised in table 1.

COc1ccc(-n2nnnc2C(F)(F)F)cc1CN[C@H]1CCCN[C@H]1c1ccccc1.Cl.Cl [Compound A]
% Variation of the time spent in active social interactions in respect to control animals: +19.9%
